pKi: −log10 of the molar value. Like-named read-outs stand apart in the source and are kept apart here.
Legend:
C1b domain of human PKCδ = target: T1, C1b domain of human PKCδ (Homo sapiens, UniProt Q05655); experiment: Competitive 3H-PDBu binding to C1b domain of PKCδ; conditions: 3H-PDBu competition
T1 construct: Genes encoding C1b domains of human PKCα, δ, ε, θ, and PKD1 (PKCμ) were synthesized; made in house; host or cells: E. coli BL21(DE3)
Method in brief: (§1)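 Affinity was measured by competition with the radiotracer 3H-PDBu for recombinant human GST-C1b fusion proteins expressed in E. coli BL21(DE3). Incubation ran 10 minutes at 37° C with shaking, then 20 minutes on ice, and filter-trapped 3H-PDBu was counted by scintillation. IC50 values were converted to Ki by Cheng-Prusoff using the experimentally determined Kd for each protein preparation.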

C1b domain of human PKCα = target: T2, C1b domain of human PKCα (Homo sapiens, UniProt P17252); experiment: biochemical; type: binding; conditions: 3H-PDBu competition
T2 construct: Genes encoding C1b domains of human PKCα, δ, ε, θ, and PKD1 (PKCμ) were synthesized; made in house; host or cells: E. coli BL21(DE3)
Method in brief: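 Competitive binding against 3H-PDBu tracer used recombinant GST-C1b fusion protein expressed in E. coli. Incubation ran 10 min at 37°C with shaking, then 20 min on ice, followed by filtration and scintillation counting of trapped 3H-PDBu. Affinity was derived using each protein preparation's experimentally determined Kd for 3H-PDBu.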

C1b domain of human PKCθ = target: T3, C1b domain of human PKCθ (Homo sapiens, UniProt Q04759); experiment: Competitive 3H-PDBu binding to C1b domain of PKCθ; conditions: C1b domain of human PKCθ, 3H-PDBu competition; read-out: Ki PKCθ
T3 construct: Genes encoding C1b domains of human PKCα, δ, ε, θ, and PKD1 (PKCμ) were synthesized; made in house; host or cells: E. coli BL21(DE3)
T3 sequence (Q04759 231-281 limits assumed): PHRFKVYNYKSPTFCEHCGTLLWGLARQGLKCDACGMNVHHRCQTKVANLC
Experimental: (§2) Compounds described in this disclosure were tested for binding affinity to C1b domain of PKC isoforms. Compound binding affinity to C1b domain of PKC isoforms was derived from competitive binding assay using radioactive tracer ^3H-PDBu and recombinant GST-C1b or full-length of human PKC proteins based on modified procedures from Methods in Molecular Biology, vol.
(§3) Genes encoding C1b domains of human PKCα, δ, ε, θ, and PKD1 (PKCμ) were synthesized and inserted into pGEX-2TK or pGEX-4T1 vectors for expression and production of GST-C1b proteins in E. coli BL21(DE3) via IPTG induction. The target proteins were purified by glutathione sepharose 4B and followed by ion exchange chromatography if needed to achieve purity >70%. Aliquots of the purified proteins were stored at −80 degree for binding assay (storage buffer: 20 mM Tris pH 8.0, 200 mM NaCl, 10% glycerol, 1 mM DTT).
(§4) The plate was incubated at 37° C. on a shaker at 300 rpm for 10 minutes and then put on ice for 20 minutes. […] The bottom of the filter plate was sealed and 50 μL of MicroScint-20 (PerkinElmer) cocktail was added to each well. ^3H-PDBu trapped in each well was counted using PerkinElmer MicroBeta2 Reader. Data were analyzed using GraphPad Prism5 with the model “log(inhibitor) vs. response-variable slope” to fit the IC50, and then IC50 was transformed to Ki using Cheng-Prusoff equation: Ki=IC50/(1+added radio ligand/Kd). Kd is the binding affinity of each protein preparation to ^3H-PDBu, determined experimentally.

C1b domain of human PKCε = target: T4, C1b domain of human PKCε (Homo sapiens, UniProt Q02156); experiment: Competitive 3H-PDBu binding to C1b domain of PKCε; conditions: C1b domain of human PKCε, 3H-PDBu competition; read-out: Ki PKCε
T4 construct: Genes encoding C1b domains of human PKCα, δ, ε, θ, and PKD1 (PKCμ) were synthesized; made in house; host or cells: E. coli BL21(DE3)
Experimental: as §2, §3, §4

[1] = target: T5, C1b domain of human PKD1 (PKCμ) (Homo sapiens, UniProt Q15139); experiment: biochemical; type: binding
T5 construct: Genes encoding C1b domains of human PKCα, δ, ε, θ, and PKD1 (PKCμ) were synthesized; made in house; host or cells: E. coli BL21(DE3)
T5 sequence (Q15139 270-320 limits assumed): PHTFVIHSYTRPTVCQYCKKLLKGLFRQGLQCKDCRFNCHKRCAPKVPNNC
Method in brief: as §1

[2] = system: phosphorylation of PKCμ, PKCδ and Erk1/2 in A549 lung cancer cells; type: cell-based; conditions: 3 μM, 30 minutes, Western blot
Experimental: Cells were then treated with different drugs at indicated concentrations for 30 minutes. […] Imagequant LAS4000 (GE) was used to scan membranes if secondary antibodies anti-mouse IgG HRP conjugate or anti-rabbit IgG HRP conjugate (dilutions from 1:2000-1:10000) were used. For ProteinSimple Wes system, manufacture's procedure was followed (ProteinSimple 12-230 kDa Wes Separation Module) for sample preparation, loading, running, and data analysis.
Phosphorylation of these sites has been linked to acute activation or catalytic activity of the PKC isoforms and Erk1/2. High level of phosphorylation indicates strong activation.

[3] = system: A549 non-small cell lung cancer cell line; experiment: Proliferation of A549 (CellTiter Glo); type: cell-based; conditions: read-out: IC50 μM (A549 Cell Line)
Method in brief: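 A549 cells (K-Ras mutant) seeded 1,000/well, 24 h at 37° C, then treated with 3-fold serial dilutions (final DMSO ≤0.25%) for 96 h. Viability by CellTiter Glo luminescence; % inhibition vs DMSO-only Max, curve-fit to give IC50, relative IC50 and % top inhibition.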

[4] = system: Panc2.13 (Pancreatic) cell line; experiment: Proliferation of Panc2.13; type: cell-based; conditions: Panc2.13
Experimental: (§5) The diterpenoid compounds were tested in A549, a non-small cell lung cancer cell line harboring a K-Ras activating mutation. Briefly, A549 cells at a density of 1,000 cells/well were seeded in 96-well plates and incubated at 37° C. for 24 hours. A series of different concentrations of compound stocks (500×) were prepared by 3-fold serial dilution in DMSO. These compounds were further diluted in culture media and then added to cells so that the final DMSO concentration was not exceeding 0.25%. After 96 hours of incubation, 50 μL of CellTiter Glo reagent (Promega) was added to each well and luminescence was measured after 10 minutes using EnVision (PerkinElmer). Luminescence from cells treated with DMSO alone was set as Max and % of inhibition was calculated as follows: Inhibition %=(Max−Sample value)/Max×100. Data was analyzed using XL-fit software (ID Business Solutions Ltd.) and IC50, relative IC50, and % of top inhibition was calculated. Some of the compounds in this disclosure were very potent in blocking proliferation of A549 lung cancer cells at low nM range. In addition, potency of inhibiting A549 proliferation correlated well with its binding affinity to PKCs for this series of compounds. In other words, higher affinity binders had stronger inhibitory effects on A549 proliferation. This further support the notion that activation, rather than inhibition, of certain PKC isoforms is required to block proliferation of cancer cells, some of which may harbor K-Ras mutations. This is in sharp contrast to previous literature and common belief that inhibition of PKC is necessary to block cancer cell growth (Kang, 2014, New Journal of Science, 2014:1-36). Data presented here is in agreement with recent findings that many loss-of-function but not gain-of-function mutations of PKC isoforms have been identified in many human cancers (Antal et al., 2015, Cell, 160:489-502).
(§6) The compounds in this disclosure were tested for their potency in blocking proliferation of a few other cancer cells lines, including K-Ras mutant pancreatic cell lines Panc2.13 and KP-4, leukemia cell line HL-60, and lymphoma cell lines Namalwa and Mino. Similar procedures as in Example 67 were followed. Initial cell numbers seeded in 96-well plates were different for different cell lines: 3000 cells/well for Panc2.13; 800-1000 cells/well for KP-4; 5000 cells/well for HL-60; 5000-10000 cells/well for Namalwa and Mino. A ratio ratio of (IC50 of K01)/(IC50 of compound) (data in parenthesis in Table 5) was used to normalize the compound potency from different assay batches to a common comparator […].

[5] = system: KP-4 (Pancreatic) cell line; experiment: Proliferation of KP-4; type: cell-based; conditions: KP-4; read-out: IC50 in μM KP-4 (Pancreatic)
Experimental: as §5, §6

[6] = system: HL-60 (Leukemia) cell line; experiment: Proliferation of HL-60; type: cell-based; conditions: HL-60
Experimental: as §5, §6

[7] = system: Namalwa (Lymphoma) cell line; experiment: Proliferation of Namalwa; type: cell-based; conditions: Namalwa
Experimental: as §5, §6

[8] = system: Mino (Lymphoma) cell line; experiment: Proliferation of Mino; type: cell-based; conditions: Mino
Experimental: as §5, §6

T1 sequence (Q05655 230-280 limits assumed): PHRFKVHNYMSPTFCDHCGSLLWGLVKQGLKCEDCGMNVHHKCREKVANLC
T4 sequence (Q02156 242-292 limits assumed): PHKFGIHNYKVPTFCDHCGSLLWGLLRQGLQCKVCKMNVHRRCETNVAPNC

Structure (SMILES) | pKi (C1b domain of human PKCδ; read-out: Ki PKCδ) | pKi (C1b domain of human PKCα; read-out: Ki PKCα) | pKi (C1b domain of human PKCθ) | pKi (C1b domain of human PKCε) | pKi ([1]; C1b domain of human PKD1 (PKCμ), 3H-PDBu competition, read-out: Ki PKD1/PKCμ) | phosphorylation of PKC (PKD/PKCμ), PKCδ and Erk1/2 [2] | IC50 ([3]; A549, 96 hours incubation, CellTiter Glo) [µM] | IC50 ([4]; read-out: IC50 in μM Panc2.13 (Pancreatic)) [µM] | ratio of (IC50 of K01)/(IC50 of compound), Panc2.13 ([4]; value in parenthesis) | IC50 [5] [µM] | IC50 ([6]; read-out: IC50 in μM HL-60 (Leukemia)) [µM] | ratio of (IC50 of K01)/(IC50 of compound), HL-60 ([6]; value in parenthesis) | IC50 ([7]; read-out: IC50 in μM Namalwa (Lymphoma)) [µM] | ratio of (IC50 of K01)/(IC50 of compound), Namalwa ([7]; value in parenthesis) | IC50 ([8]; read-out: IC50 in μM Mino (Lymphoma)) [µM] | ratio of (IC50 of K01)/(IC50 of compound), Mino ([8]; value in parenthesis) | pKi (C1b domain of human PKCδ; Ki PKCδ) | pKi (C1b domain of human PKCα; Ki PKCα) | pKi [1] | IC50 ([3]; Homo sapiens, A549, 96 h) [µM]
CC1=C[C@H]2[C@@]3(O)[C@H](C)C[C@]4(OC(=O)[C@@H](N)Cc5ccccc5)[C@H]([C@@H]3C=C(CO)C[C@]2(O)C1=O)C4(C)C [Compound K101-C1303] | 7.22 to 7.52 | 6.10 to 6.40 | 7.22 to 7.52 | 6.70 to 7.00 | 7.52 to 9.00 | induced phosphorylation | 0.6 to 1 | 1 to 2 | 0.75 | 0.6 to 1 | 0.2 to 0.6 | 0.9 | 0.2 to 0.6 | 0.19 | 0.1 to 0.2 | 0.57 |  |  |  | 
CC1=C[C@H]2[C@@]3(O)[C@H](C)C[C@]4(OC(=O)CCc5ccncc5)[C@H]([C@@H]3C=C(CO)C[C@]2(O)C1=O)C4(C)C [Compound K101-C1315] |  |  |  |  |  | induced phosphorylation |  |  |  |  |  |  |  |  |  |  | 6.70 to 7.00 | < 5.10 | 7.22 to 7.52 | 1 to 2
CC1=C[C@H]2[C@@]3(O)[C@H](C)C[C@]4(OC(=O)CCc5ccccn5)[C@H]([C@@H]3C=C(CO)C[C@]2(O)C1=O)C4(C)C [Compound K101-C1316] |  |  |  |  |  | induced phosphorylation |  |  |  |  |  |  |  |  |  |  | 6.70 to 7.00 | 5.10 to 5.22 | 7.22 to 7.52 | 0.6 to 1

Reference: US20220411362A1, “DITERPENOID COMPOUNDS THAT ACT ON PROTEIN KINASE C (PKC)” (K-Gen, Inc., priority 2019, published 2022)
